Drawing on US12673954B2 (BRISTOL-MYERS SQUIBB COMPANY, priority 2021, dated 2026), this text covers EC50 for 20 molecules.

The EC50 is the concentration that produces a half-maximal response.

In test [1] the test system is IRF pathway, THP1-Dual™ cells. Description: STING reporter assay in THP1-Dual cells, IRF pathway (Lucia luciferase, QUANTI-Luc). In kind it is cell-based, human. The following applies: THP1-Dual cells, 10% human plasma, 20 hours, Lucia luciferase, 100% activation = 100 μM cGAMP, read-out: IRF (EC50 μM). The essentials:
(§1)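 THP-1-derived dual-reporter cells treated with serially diluted compounds (final top concentration 100 μM) for 20 h at 37° C. NF-κB read as SEAP via QUANTI-Blue at OD620; IRF read as Lucia luminescence via QUANTI-Luc after 5 min. 100% activation set by 100 μM cGAMP, baseline by DMSO.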
Background: A reporter such as luciferase makes a cellular process visible.

Test [2] concerns NF-κB pathway, THP1-Dual™ cells. As to the kind of experiment: STING reporter assay in THP1-Dual cells, NF-κB pathway (SEAP, QUANTI-Blue). Type of test: cell-based, human. The following applies: THP1-Dual cells, 10% human plasma, 20 hours, SEAP, 100% activation = 100 μM cGAMP, read-out: NFkB (EC50 μM). The essentials: as §1

Like-named read-outs stand apart in the source and are kept apart here.

As for `C[C@H](NC(=O)c1cnn2cccnc12)c1oc2c(C(=O)O[C@H](C)C(F)(F)F)cc(F)cc2c1Cl` [EXAMPLE 293, (R)-1,1,1-Trifluoropropan-2-yl 3-chloro-5-fluoro-2-((S)-1-(pyrazolo[1,5-a]pyrimidine-3-carboxamido)ethyl)benzofuran-7-carboxylate], the EC50 in test [1] (Homo sapiens, THP1-Dual, 20 h) worked out at 4.4 µM; in test [2] (Homo sapiens, THP1-Dual, 20 h) it was 3.8 µM.
The corresponding values for `O=C(OCC(F)(F)F)c1cc(Cl)cc2c(Cl)c(CNC(=O)c3cnn4cccnc34)oc12` [EXAMPLE 294, 2,2,2-Trifluoroethyl 3,5-dichloro-2-((pyrazolo[1,5-a]pyrimidine-3-carboxamido)methyl)benzofuran-7-carboxylate] are 0.8 µM and 0.93 µM.
As for `C[C@@H](OC(=O)c1cc(Cl)cc2c(Cl)c(CNC(=O)c3cnn4cccnc34)oc12)C(F)(F)F` [EXAMPLE 295, (R)-1,1,1-Trifluoropropan-2-yl 3,5-dichloro-2-((pyrazolo[1,5-a]pyrimidine-3-carboxamido)methyl)benzofuran-7-carboxylate], the EC50 in test [1] (Homo sapiens, THP1-Dual, 20 h) amounted to 1.1 µM; in test [2] (Homo sapiens, THP1-Dual, 20 h), 0.56 µM.
As for `C[C@H](NC(=O)c1cnn2cccnc12)c1oc2c(C(=O)O[C@H](C)C(F)(F)F)cc(Cl)cc2c1Cl` [EXAMPLE 296, (R)-1,1,1-Trifluoropropan-2-yl 3,5-dichloro-2-((S)-1-(pyrazolo[1,5-a]pyrimidine-3-carboxamido)ethyl)benzofuran-7-carboxylate], the half-maximal effective concentration (EC50) was 5.7 µM in test [1] (Homo sapiens, THP1-Dual, 20 h) and 4.6 µM in test [2] (Homo sapiens, THP1-Dual, 20 h).
`C[C@H](NC(=O)c1cnn2cccnc12)c1oc2c(C(=O)OCC(F)(F)F)cc(Cl)cc2c1Cl` [EXAMPLE 297, 2,2,2-Trifluoroethyl (S)-3,5-dichloro-2-(1-(pyrazolo[1,5-a]pyrimidine-3-carboxamido)ethyl)benzofuran-7-carboxylate]: the concentration giving a half-maximal response (EC50) in test [1] (Homo sapiens, THP1-Dual, 20 h) amounted to 3.1 µM; in test [2] (Homo sapiens, THP1-Dual, 20 h) it was 3.2 µM.
The corresponding values for `C[C@H](NC(=O)c1cnn2cccnc12)c1oc2c(C(=O)OC3COC3)cc(Cl)cc2c1Cl` [EXAMPLE 298, Oxetan-3-yl (S)-3,5-dichloro-2-(1-(pyrazolo[1,5-a]pyrimidine-3-carboxamido)ethyl)benzofuran-7-carboxylate] are 3.6 µM and 3.3 µM.
On the same counts, the results for `Cc1cc(C(=O)OCC(F)(F)F)c2oc(CNC(=O)c3cnn4cccnc34)c(Cl)c2c1` [EXAMPLE 299, 2,2,2-Trifluoroethyl 3-chloro-5-methyl-2-((pyrazolo[1,5-a]pyrimidine-3-carboxamido)methyl)benzofuran-7-carboxylate] are 0.28 µM and 0.33 µM.
On the same counts, the results for `Cc1cc(C(=O)O[C@H](C)C(F)(F)F)c2oc(CNC(=O)c3cnn4cccnc34)c(Cl)c2c1` [EXAMPLE 300, (R)-1,1,1-Trifluoropropan-2-yl 3-chloro-5-methyl-2-((pyrazolo[1,5-a]pyrimidine-3-carboxamido)methyl)benzofuran-7-carboxylate] are 0.76 µM and 0.71 µM.
Consider `Cc1cc(C(=O)O[C@@H](C)C(F)(F)F)c2oc(CNC(=O)c3cnn4cccnc34)c(Cl)c2c1` [EXAMPLE 301, (S)-1,1,1-Trifluoropropan-2-yl 3-chloro-5-methyl-2-((pyrazolo[1,5-a]pyrimidine-3-carboxamido)methyl)benzofuran-7-carboxylate], for which the 50% effective concentration (EC50) was determined as 2.1 µM in test [1] (Homo sapiens, THP1-Dual, 20 h) and 2.7 µM in test [2] (Homo sapiens, THP1-Dual, 20 h).
`Cc1cc(C(=O)OC(CF)CF)c2oc(CNC(=O)c3cnn4cccnc34)c(Cl)c2c1` [EXAMPLE 302, 1,3-Difluoropropan-2-yl 3-chloro-5-methyl-2-((pyrazolo[1,5-a]pyrimidine-3-carboxamido)methyl)benzofuran-7-carboxylate]: the 50% effective concentration (EC50) in test [1] (Homo sapiens, THP1-Dual, 20 h) stood at 0.43 µM; in test [2] (Homo sapiens, THP1-Dual, 20 h), 0.52 µM.
On the same counts, the results for `Cc1cc(C(=O)OC2CC(F)(F)C2)c2oc(CNC(=O)c3cnn4cccnc34)c(Cl)c2c1` [EXAMPLE 303, 3,3-Difluorocyclobutyl 3-chloro-5-methyl-2-((pyrazolo[1,5-a]pyrimidine-3-carboxamido)methyl)benzofuran-7-carboxylate] are 0.53 µM and 0.58 µM.
On the same counts, the results for `Cc1cc(C(=O)O[C@H](C)C(F)(F)F)c2oc(C(C)NC(=O)c3cnn4cccnc34)c(Cl)c2c1` (stereo partly drawn) [EXAMPLE 304, (R)-1,1,1-Trifluoropropan-2-yl 3-chloro-5-methyl-2-(1-(pyrazolo[1,5-a]pyrimidine-3-carboxamido)ethyl)benzofuran-7-carboxylate] are 7.6 µM and 8.3 µM.
On the same counts, the results for `CC(NC(=O)c1cnn2cccnc12)c1cc2cc(F)cc(C(=O)O[C@@H](C)C(F)(F)F)c2o1` (stereo partly drawn) [EXAMPLE 305, (S)-1,1,1-Trifluoropropan-2-yl 5-fluoro-2-(1-(pyrazolo[1,5-a]pyrimidine-3-carboxamido)ethyl)benzofuran-7-carboxylate] are 5 µM and 3.9 µM.
`CC(NC(=O)c1cnn2cccnc12)c1cc2cc(F)cc(C(=O)OC3CC(F)(F)C3)c2o1` (stereo not shown) [EXAMPLE 306, 3,3-Difluorocyclobutyl 5-fluoro-2-(1-(pyrazolo[1,5-a]pyrimidine-3-carboxamido)ethyl)benzofuran-7-carboxylate]: the EC50 worked out at 1.3 µM in test [1] (Homo sapiens, THP1-Dual, 20 h) and 1.3 µM in test [2] (Homo sapiens, THP1-Dual, 20 h).
On to `CC(OC(=O)c1ccc(Cl)c2cc(CNC(=O)c3cnn4cccnc34)oc12)C(F)(F)F` (stereo not shown) [EXAMPLE 311, 1,1,1-Trifluoropropan-2-yl 4-chloro-2-((pyrazolo[1,5-a]pyrimidine-3-carboxamido)methyl)benzofuran-7-carboxylate], for which the EC50 in test [1] came out at 2 µM; in test [2] it was 2.3 µM.
As to `CC(OC(=O)c1ccc(Cl)c2cc(CNC(=O)c3cnn4cccnc34)oc12)C(F)(F)F` (stereo not shown) [EXAMPLE 312, 1,1,1-Trifluoropropan-2-yl 4-chloro-2-((pyrazolo[1,5-a]pyrimidine-3-carboxamido)methyl)benzofuran-7-carboxylate], the EC50 was found to be 21 µM in test [1] and 56 µM in test [2].
The corresponding values for `CC(NC(=O)c1cnn2cccnc12)c1cc2cc(F)cc(C(=O)O[C@H](C)C(F)(F)F)c2o1` (stereo partly drawn) [EXAMPLE 325, (R)-1,1,1-Trifluoropropan-2-yl 5-fluoro-2-(1-(pyrazolo[1,5-a]pyrimidine-3-carboxamido)ethyl)benzofuran-7-carboxylate] are 1.7 µM and 1.4 µM.
Consider `CC(NC(=O)c1cnn2cccnc12)c1cc2cc(F)cc(C(=O)O[C@H](C)C(F)(F)F)c2o1` (stereo partly drawn) [EXAMPLE 326, (R)-1,1,1-Trifluoropropan-2-yl 5-fluoro-2-(1-(pyrazolo[1,5-a]pyrimidine-3-carboxamido)ethyl)benzofuran-7-carboxylate], for which the concentration giving a half-maximal response (EC50) in test [1] was 74 µM; in test [2], > 100 µM.
On the same counts, the results for `CC(OC(=O)c1cc(Cl)cc2cc(CN3CCc4ccncc4C3=O)oc12)C(F)(F)F` (stereo not shown) [EXAMPLE 337, 1,1,1-Trifluoropropan-2-yl 5-chloro-2-((1-oxo-3,4-dihydro-2,7-naphthyridin-2(1H)-yl)methyl)benzofuran-7-carboxylate] are 9.8 µM and 13 µM.
Turning to `CC(OC(=O)c1cc(Cl)cc2cc(CN3CCc4ccncc4C3=O)oc12)C(F)(F)F` (stereo not shown) [EXAMPLE 338, 1,1,1-Trifluoropropan-2-yl 5-chloro-2-((1-oxo-3,4-dihydro-2,7-naphthyridin-2(1H)-yl)methyl)benzofuran-7-carboxylate], the EC50 in test [1] was determined as 46 µM; in test [2] it was 48 µM.
